Laboratory results taken from patent US8940302B2, “Predicting response to a HER inhibitor” (Genentech, Inc., priority 2007, dated 2015).

Columns and labels:
[1] = system: platinum-resistant ovarian cancer, primary peritoneal carcinoma, or fallopian tube carcinoma; experiment: Randomized trial of gemcitabine + pertuzumab vs gemcitabine + placebo, PFS and OS by qRT-PCR HER3 (Examples 1 and 4); assay type: in vivo, human
From the text: Patients who had progressed while receiving, or within 6 months of receiving, a platinum-based chemotherapy regimen were eligible for this study. Patients were randomized to receive either gemcitabine in combination with pertuzumab, or gemcitabine in combination with placebo. Patients treated herein included those who had not received a previous salvage regimen treatment for platinum-resistant disease prior to study entry, and those who had received one prior regimen for platinum-resistant disease. Gemcitabine was administered at 1000 mg/m^2 on days 1 and 8 of each 21 day cycle. Gemcitabine was infused first over 30 minutes. Dose reductions were permitted for toxicity. […] Subjects without progressive disease received treatment for up to 17 cycles, or 1 year. Patients had standard gemcitabine dose reduction and held doses as a result of cytopenias. […] Subsequent doses were at the reduced doses and were not increased. If dose reduction or holding a dose was required in more than 4 occasions, or if doses were held for more than 3 weeks, then gemcitabine was discontinued and with the approval of the treating physician and medical monitor, blinded drug was continued until disease progression. If Day 8 gemcitabine doses were held, then the Day 8 dose was omitted and the subsequent treatment was commenced with the next cycle (Day 22 of the previous cycle). Response was assessed at the end of Cycles 2, 4, 6, 8, 12 and 17. Measurable disease was assessed using the Response Evaluation Criteria for Solid Tumors (RECIST), by clinical evaluation and CT scan or equivalent. Response for subjects with evaluable disease was assessed according to changes to CA-125 and clinical and radiologic evidence of disease. Responses were confirmed 4-8 weeks after the initial documentation of response. The following outcome measures were assessed. Progression free survival, as determined by investigator assessment using RECIST or CA-125 changes, following initiation of assigned study treatment of all subjects in each arm. Formalin-fixed, paraffin embedded tissue (FFPET) samples obtained from the patients in this clinical trial were analyzed for EGFR, HER2, HER3, two HER ligands (amphiregulin and betacellulin), and G6PDH (a housekeeping gene) by qRT-PCR. The qRT-PCR assay was performed by TARGOS Molecular Pathology GmbH (Kassel, Germany) using Roche Diagnostic's lab lot kits. The workflow and analysis for performing the qRT-PCR assay on the clinical samples are depicted in FIGS. 27 and 28 herein. The efficacy results were assessed at 7.1 months median follow-up (range 1.3-20.3). There were 101 progression free survival (PFS) events at that time. […] P-values were estimated using stratified Cox model and stratified log-rank test by randomization stratification factors (ECOG PS, number of prior regimens for platinum resistant disease, and disease measurability). Patients with CDDP-R EOC were randomized to G+P or G+placebo. Treatment was given until progression or until unacceptable toxicity. The primary endpoint was PFS. A secondary objective was to evaluate efficacy outcomes in patients with HER2 activation-related expression profiles. A qRT-PCR assay using archival formalin-fixed paraffin-embedded tissue (FFPET), preformed as described above, allowed mRNA expression analysis of HER pathway genes, including HER1, HER2, HER3, amphiregulin, and betacellulin. Outcomes were described by low gene expression (<median) and by high gene expression (≧median).

[2] = system: advanced, refractory, or recurrent ovarian cancer; experiment: Single arm phase II trial of single agent pertuzumab, PFS and OS by HER3 qRT-PCR (Example 2); assay type: in vivo, human; details: for median survival: single agent pertuzumab, FIG. 25
Protocol: This example concerns a single arm, open label, multicenter phase II clinical trial of ovarian cancer patients. […] Tumor assessments were obtained after 2, 4, 6, 8, 12 and 16 cycles. Response Rate (RR) by RECIST was the primary endpoint. Safety and tolerability were additionally evaluated. Secondary endpoints were TTP, duration of response, duration of survival, pharmacokinetics (PK), and FOSI (cohort 2). qRT-PCR assays were performed on archived formalin fixed paraffin embedded tissue. Assay data is available for 46/117 patients. Here high HER3 expressors were in the greater than and equal to 75th percentile, while low HER3 expressors were in the less than 75th percentile.

[3] = system: platinum-sensitive recurrent ovarian cancer; experiment: Randomized open-label Phase II study of pertuzumab with carboplatin-based standard chemotherapy (Example 3); assay type: in vivo, human; details: FIGS. 32-35
From the text: In this randomized, open-label Phase II clinical study, the efficacy and safety of pertuzumab treatment in combination with carboplatin-based standard chemotherapy was investigated in patients with platinum-sensitive recurrent ovarian cancer. The target sample size is 100-500 individuals. Target sample size is 148. Inclusion Criteria: • histologically confirmed ovarian, primary peritoneal, or fallopian tube cancer; • only 1 previous regimen, which must be platinum-based; • platinum-sensitive disease which is defined by a progression-free interval of greater than 6 months after completion of platinum-based chemotherapy. Exclusion Criteria: • previous radiotherapy; • previous treatment with an anti-cancer vaccine or any targeted therapy; • major surgery or traumatic injury within 4 weeks of study; • history or evidence of central nervous system metastases.

[4] = system: incurable, locally advanced, recurrent or metastatic solid tumors; details: cited from earlier work
[5] = in vivo; cited from earlier work

Compound	OS (median months) ([1]; All Patients (n = 130))	PFS (median months) ([1]; All Patients (n = 130))	OS (median months) ([1]; High HER3 (N = 61), ≧median)	PFS (median months) ([1]; High HER3 (N = 61), ≧median)	OS (median months) ([1]; Low HER3 (N = 61), <median)	PFS (median months) ([1]; Low HER3 (N = 61), <median)	pertuzumab activity (PFS) by HER3 expression ([1]; qRT-PCR HER3 cutoffs, FIGS. 14-15)	median survival ([2]; high HER3 expressing patients (greater than and equal to 75th percentile))	median survival ([2]; low HER3 expressing patients (less than 75th percentile))	outcomes in terms of PFS and OS by HER3 expression ([2]; patients with low HER3 expression vs high)	pertuzumab activity (PFS) by HER2:HER3 expression [3]	pertuzumab activity (PFS) by HER3 expression [3]	tolerability ([4]; in vivo, iv)	Tumor regression ([4]; patients evaluable for response, pertuzumab IV every 3 weeks)	confirmed partial responses ([4]; pertuzumab IV every 3 weeks)	mean clearance [5]	mean terminal elimination half-life [5]
Cl.Nc1ccn([C@@H]2O[C@H](CO)[C@@H](O)C2(F)F)c(=O)n1 (single isomer, unassigned) [G + Placebo, 2′-deoxy-2′,2′-difluorocytidine monohydrochloride (b-isomer)]	13.1 months	2.6 months	18.2 months	5.5 months	8.4 months	1.4 months											
pertuzumab: humanized HER2 antibody, HER dimerization inhibitor, comprising light and heavy chain amino acid sequences in SEQ ID NOS. 13 and 14							greatest in patients with HER3 low expressing tumors	1.80 years	3.31 years	better outcomes in terms of PFS and OS	greatest in patients with high HER2:HER3 expressing cancer	greatest in patients with HER3 low expressing cancer	generally well tolerated	3 of 20	Two	2.69 to 3.74 mL/day/kg	15.3 to 27.6 days
